Structures can show the parent of a compound that is named as a salt.
Assays:
Type in all cases: cell-based
[1] = system: Mouse preadipocyte strain 3T3-L1; assay: Inhibition of differentiation as an indication of acetic acid uptake; details: Mus musculus, 3T3-L1, 0.1 μM test substance, control (0.01% dimethylsulfoxide) = 100%, read-out: Rate of Uptake (%) of [2-14C] acetic acid
Experimental: As the basal medium, Dulbecco's modified Eagle's (DEM) medium (NISSUI PHARMACEUTICAL CO., LTD) was used. […] All culturing in the present Test Example was carried out in a CO2 incubator at 37° C. and 10% CO2 concentration.
The successively cultured 3T3-L1 cells were inoculated in a Biocoat Collagen I 96-well white/clear plate (Becton Dickinson and Co.) at a concentration of 4,900 cells/well, and were cultured in the basal medium containing added 10% (v/v) inactivated bovine fetal serum (FBS) for 10 days.
The medium was replaced with a differentiation-inducing medium in which inactivated FBS (final concentration: 5%), insulin (Sigma-Aldrich Japan K. K., final concentration: 10 μg/mL), isobutyl methyl xanthine (Aldrich K. K., final concentration: 0.5 mM) and dexamethazone (final concentration: 1 μM) were added so as to be at the final concentrations indicated in the parentheses. The cells were divided in the following 2 groups and were cultured for 4 days; 1) in the presence of 0.01% (v/v) dimethylsulfoxide, and 2) in the presence of 0.01% (v/v) dimethylsulfoxide in which was dissolved 1 mM of the test substance (final concentration of 0.1 μM). Then, the medium was further replaced with a maintenance medium in which inactivated […] and insulin were added to the base medium so as to be at final concentrations of 5% and 100 ng/mL, respectively, and the cells were cultured for 2 days.
The inhibitory activity of the test compound against cell differentiation was assayed by using uptake of [2-^14C] acetic acid into the cultured cells as an indicator. […] Then the cells were further incubated with the newly prepared medium for 1 hr. After washing the well with PBS (−), the cells were dried. To these wells, 100 μL/well of a scintillation cocktail (Hewlett-Packard Co., MICROSCINT-20 PACKARD) were added and their radioactivities were determined with a Packard TopCont microplate Scintillation Counter (Hewlett-Packard Co., PACKARD) and the uptake level of [2-^14C] acetic acid into the cultured cell was calculated.
On the basis of the calculated uptake level of [2-^14C] acetic acid into the cultured cells, the relative uptake level of [2-^14C] acetic acid in the group treated with the test compound was calculated against the uptake level of [2-^14C] acetic acid in the presence of 0.01% (v/v) dimethylsulfoxide solution described in 1) (100%).
Value=Uptake Level (cpm) of [2-^14C] Acetic Acid in the Presence of the Test Substance
Control=Uptake Level (cpm) of [2-^14C] Acetic Acid in the Control Group (0.01% dimethylsulfoxide)
Uptake Rate (%) of [2-^14C] Acetic Acid=100×[Value]/[Control]

[2] = molecular target: T1, human PPAR γ 2 (Homo sapiens, UniProt P37231); assay: Inhibitory activity against PPAR γ transcription in the presence of agonist compound A, luciferase reporter; details: in the presence of 10 nM compound A (agonist); MG63 cells transfected with pSG5-hPPARg and pGV-P2-PPRE; 24 hr
T1 construct: expressed in transfected cells; host or cells: human osteosarcoma MG63, transiently co-transfected with pSG5-hPPARg and the reporter pGV-P2-PPRE
T1 sequence (P37231 1-505): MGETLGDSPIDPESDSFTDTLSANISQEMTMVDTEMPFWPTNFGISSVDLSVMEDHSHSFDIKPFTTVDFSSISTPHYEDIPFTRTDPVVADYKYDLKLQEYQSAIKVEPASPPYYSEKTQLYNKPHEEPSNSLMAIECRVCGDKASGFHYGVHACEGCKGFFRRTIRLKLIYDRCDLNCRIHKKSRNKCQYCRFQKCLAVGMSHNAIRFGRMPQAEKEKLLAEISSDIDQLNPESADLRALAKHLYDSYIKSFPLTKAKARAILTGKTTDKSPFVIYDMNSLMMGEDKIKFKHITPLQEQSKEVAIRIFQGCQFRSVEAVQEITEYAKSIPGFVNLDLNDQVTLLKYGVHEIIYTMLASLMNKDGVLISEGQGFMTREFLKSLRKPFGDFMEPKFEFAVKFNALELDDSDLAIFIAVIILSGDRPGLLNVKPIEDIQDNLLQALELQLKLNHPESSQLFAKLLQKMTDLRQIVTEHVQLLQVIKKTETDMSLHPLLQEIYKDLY
Description: The primers of the polymerase chain reaction (hereinafter “PCR”) were designed according to the gene sequence of human PPAR γ 2 (GenBANK accession No. D83233). […] For this, 2 kinds of polynucleotides shown in the sequence numbers 1 and 2 in the sequence table described below (hereinafter “S1” and “AS1”, respectively) were used as PCR primers.
In order to determine transcriptional activity via PPAR γ, 2 kinds of polynucleotides represented in sequence numbers 3 and 4 in the sequence table described below (hereinafter “S2” and “AS2”, respectively) were used for construction of the reporter plasmid having PPAR responsive element. The DNA fragment inserted was designed based on the gene sequence in the promoter region of rat acylCo-A oxidase (J. D. Tugwood, EMBO J., 11 (2), pp433-439 (1992)). For insertion of the DNA fragment into the reporter plasmid pGV-P2 (TOYO INK MFG CO., LTD), a NheI site and an XhoI site were added to the S2 and AS2, respectively.
Using cDNA library (Clontech) derived from human adipose tissue as a template, DNA oligomers S1 and AS1 that were synthesized in the procedure 1 as primers and Ex-Taq™ (TAKARA BIO INC.) as a thermostable DNA polymerase-PCR was carried out. […] Each cycle consisted of incubation at 94° C. for 1 min for denaturation of the template, then at 55° C. for 30 sec for annealing of DNA oligomers the PCR primer, and then at 72° C. for 30 sec for extension of the chain. The obtained DNA fragments with approximately 1500 base pairs were digested at the Bgl II sites and were inserted into BamHI sites of pSG5. Thus a human PPAR γ expression plasmid named pSG5-hPPAR g was obtained.
Vector pGV-P2 digestion products was prepared by digestion using the restriction enzymes, NheI and XhoI, and purified by 1.0% agarose-gel electrophoresis. The DNA oligomers, S2 and AS2 obtained in Procedure 2, were mixed together and were incubated in a hot bath at 94° C. for 1 min. After the annealing was partially broken, they were further incubated at 25° C. for 1 hr. Thus double-stranded DNA with annealing of S2 and AS2 was formed. Then, the terminus of the double-stranded DNA with annealing of S2 and AS2 was phosphorylated with DNA polynucleotide kinase (TOYOBO CO., LTD). After that, it was ligated to the pGV-P2 digestion products which were prepared previously using the NheI site and XhoI site. Thus the reporter plasmid pGV-P2-PPRE was obtained.
Using the plasmid obtained by the procedures 3 and 4, transformation of Escherichia coli HB-101 strain was carried out by conventional methods. HB-101 strain having the plasmid was incubated in L-broth medium (containing 10 g of trypton (Difco), 5 g of yeast extract (Difco), 5 g of sodium chloride in 1 L of aqueous solution) containing 100 μg/ml of ampicillin at 37° C. for 17 hrs. Then, each plasmid was purified by the alkaline-SDS method and employed for the gene transfection to mammalian cells. After mixing the pSG5-hPPARg, PGV-P2-PPRE and LipofectAMINE reagent (GIBCO BRL), the human osteosarcoma MG63 was transiently transfected. Then the cells were recovered. The recovered cells were plated on a 96-well plate so as to be 30,000 cells/well and cultured in a CO2 incubator (NAPCO) at 37° C. for 24 hr under the condition of 5% CO2, 95%-RH.
Ten (10) nM of the following compound A (although compound A is described here as a representative compound, the compound is not limited to compound A, if the compound exerts a PPAR r agonistic activity) and various concentrations of the test compound were added to culturing medium of the cells prepared in the Procedure 5.

[3] = system: Rat white adipocytes; assay: Inhibition of the differentiation of adipocytes (Oil Red O); details: Rattus norvegicus, Adipocyte, 120 h, 100 nM test compound; 5 days; Oil Red O ABS550; control = 100%, blank = 0%; Table 3; read-out: Rate of Differentiation (%)
Outline: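 Rat white preadipocytes, 5,000 cells/well, given differentiation medium with compound at 100 nM final (0.1% DMSO) for 5 days at 37 °C. Lipid stained with Oil Red O, eluted in DMSO, read at 550 nm; differentiation % relative to DMSO control (100%) and blank (0%).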

Compound	activity at 0.1 µM [1] [%]	IC50 [2] [nM]	activity at 0.1 µM [3] [%]
Cc1nccc(-c2cccc(NC(=O)c3cc([N+](=O)[O-])ccc3Cl)c2)n1 [Example 112, N-[3-(2-Methylpyrimidin-4-yl)phenyl]-(2-chloro-5-nitrophenyl)carboxamide]	82.3	14	–
CCS(=O)(=O)Nc1ccc(NC(=O)c2cc([N+](=O)[O-])ccc2Cl)cc1 [Example 129, N-(4-Ethanesulfonylaminophenyl)-(2-chloro-5-nitrophenyl)carboxamide]	–	26	–
O=C(Nc1ccc(C(=O)N2CCOCC2)cc1)c1cc([N+](=O)[O-])ccc1Cl [Example 158, N-[4-(Morpholin-4-ylcarbonyl)phenyl]-(2-chloro-5-nitrophenyl)carboxamide]	–	82	–
CCCCCCCCN(CCCCC)c1ccc(-c2ccc(NC(=O)c3cc([N+](=O)[O-])ccc3Cl)cc2)cc1 [Example 221, N-[4-[4-(N-Octyl-N-pentylamino)phenyl]phenyl]-(2-chloro-5-nitrophenyl)carboxamide mono-hydrochloride]	–	34	40.2
O=C(Nc1ccc(N2CCN(C(=O)c3cccnc3)CC2)cc1)c1cc([N+](=O)[O-])ccc1Cl [Example 227, N-[4-[4-(Pyridin-3-ylcarbonyl)piperazin-1-yl]phenyl]-2-(chloro-5-nitrophenyl)carboxamide]	–	81	39.7
CC(O)c1ccc(NC(=O)c2cc([N+](=O)[O-])ccc2Cl)cc1 (stereo not shown) [Example 238, N-[4-(1-Hydroxyethyl)phenyl]-(2-chloro-5-nitrophenyl)carboxamide]	–	9.3	64
O=C(Nc1ccc(-c2ccc(NC(=S)Nc3cccnc3)cc2)cc1)c1cc([N+](=O)[O-])ccc1Cl [Example 256, N-[4-[4-[(Pyridin-3-yl)aminothiocarbonylamino]phenyl]phenyl)-(2-chloro-5-nitrophenyl)carboxamide]	–	12	38.2
O=C(NCCc1ccc(NC(=O)c2cc([N+](=O)[O-])ccc2Cl)cc1)Nc1ccccc1 [Example 268, N-[4-(2-Phenylaminocarbonylaminoethyl)phenyl]-(2-chloro-5-nitrophenyl)carboxamide]	–	25	54.8
O=C(Nc1ccc(CCNC(=S)Nc2ccccc2)cc1)c1cc([N+](=O)[O-])ccc1Cl [Example 269, N-[4-(2-Phenylaminothiocarbonylaminoethyl)phenyl]-(2-chloro-5-nitrophenyl)carboxamide]	–	30	52.9

Source: patent publication US20030134859A1 (SANKYO COMPANY, LIMITED, priority 2000, published 2003)
